Patent US12391676B2 (H. LEE MOFFITT CANCER CENTER AND RESEARCH INSTITUTE, INC., priority 2018, dated 2025)
pIC50: −log10 of the molar value. Read-outs that look alike come from different tables or passages of the source.

Columns and labels:
BRD4-1 = BRD4-1 (Homo sapiens (Human), UniProt O60885); assay: Estimated BRD4-1 IC50; assay type: binding; conditions: Table 1
BRD4 [1] = biological target: T1, BRD4 (Homo sapiens (Human), UniProt O60885); assay: BRD4 DSF thermal shift (ΔTm); assay type: binding; conditions: for DSF ΔTm: Table 1; for BRD4 DSF (ΔTm): Table 2
JAK2 = JAK2 (Homo sapiens (Human), UniProt O60674); assay: JAK2 IC50; assay type: biochemical
Chain of JAK2 (O60674 whole entry): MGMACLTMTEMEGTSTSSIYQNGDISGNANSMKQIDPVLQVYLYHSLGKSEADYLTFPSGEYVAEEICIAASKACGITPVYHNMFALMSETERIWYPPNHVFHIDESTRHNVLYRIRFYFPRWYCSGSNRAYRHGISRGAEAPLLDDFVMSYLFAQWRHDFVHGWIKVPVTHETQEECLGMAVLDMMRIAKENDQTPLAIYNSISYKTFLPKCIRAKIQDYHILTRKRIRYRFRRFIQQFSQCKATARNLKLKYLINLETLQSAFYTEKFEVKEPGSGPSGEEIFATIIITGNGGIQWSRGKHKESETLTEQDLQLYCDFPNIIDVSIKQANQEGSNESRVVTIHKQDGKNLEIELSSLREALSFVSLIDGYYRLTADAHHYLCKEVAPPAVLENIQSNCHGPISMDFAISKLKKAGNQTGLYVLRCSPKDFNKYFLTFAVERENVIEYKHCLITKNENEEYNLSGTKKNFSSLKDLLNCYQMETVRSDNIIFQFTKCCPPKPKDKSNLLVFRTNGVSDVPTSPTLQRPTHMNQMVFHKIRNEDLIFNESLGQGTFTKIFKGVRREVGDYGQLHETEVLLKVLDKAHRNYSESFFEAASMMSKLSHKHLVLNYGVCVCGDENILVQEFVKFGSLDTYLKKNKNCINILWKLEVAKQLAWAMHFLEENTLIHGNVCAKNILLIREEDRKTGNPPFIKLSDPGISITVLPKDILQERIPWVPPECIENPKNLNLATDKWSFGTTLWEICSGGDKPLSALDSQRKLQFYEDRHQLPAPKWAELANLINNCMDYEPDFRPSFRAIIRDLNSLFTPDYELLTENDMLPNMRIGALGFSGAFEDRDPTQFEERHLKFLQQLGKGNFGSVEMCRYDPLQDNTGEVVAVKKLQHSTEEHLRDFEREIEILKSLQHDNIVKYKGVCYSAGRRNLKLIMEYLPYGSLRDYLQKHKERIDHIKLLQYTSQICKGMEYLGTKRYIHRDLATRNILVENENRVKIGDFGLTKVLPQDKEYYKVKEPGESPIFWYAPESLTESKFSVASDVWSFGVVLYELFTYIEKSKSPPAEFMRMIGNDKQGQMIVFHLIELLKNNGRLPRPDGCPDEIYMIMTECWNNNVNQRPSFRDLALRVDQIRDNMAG

c-Myc = conditions: background, literature; cited from earlier work
MM1.S cells = assay: Antiproliferative activity, MM1.S cells; assay type: cell-based; conditions: Homo sapiens; for GI50: Table 2, read-out: GI50 (MM1S); for pIC50: Table 1 comments
Method: Cellular activity of promising compounds is assessed using MM.1S and MV4-11 AML cells using c-Myc levels as biomarker (6-12 hr treatment) and antiproliferative activity (48-72 hr treatment) as described (Ciceri et al., Dual kinase-bromodomain inhibitors for rationally designed polypharmacology. Nat Chem Biol 2014).

UKE1 cells [2] = assay: Growth inhibition GI50, UKE1 cells; assay type: cell-based
BRD4 [3] = biological target: T1, BRD4; assay: BRD4 IC50; assay type: binding; conditions: Table 2
[4] = Mouse microsome stability; assay type: in vitro ADME; conditions: Table 1 comments; meaning of % not stated
SET2 cells = assay: Growth inhibition GI50, SET2 cells; assay type: cell-based; conditions: Homo sapiens, SET-2; Table 1 comments; unit printed only for the neighbouring values in the cell
BaF3-JAK2-VF cells = assay: Growth inhibition GI50, BaF3-JAK2-VF cells; assay type: cell-based; conditions: Table 1 comments
UKE1 cells [5] = assay: Drug persistence of UKE1 cells under escalating drug concentration; assay type: cell-based; conditions: for development of drug persistence: UKE1 cells started at GI20, concentration doubled if growth >90% of DMSO; for final drug concentration at the end of the experiment: drug persistence experiment
Method: UKE1 cells were incubated with DMSO, MA9-060, fedratinib, or ruxolitinib at their respective GI20 concentrations. Cell growth was compared to DMSO. Cells were passed back to the same density after counting. Drug concentration was doubled if growth was >90% of DMSO. Fold GI20 is plotted vs time, with drug persistence represented by upward steps of the lines. The final MA9-060, ruxolitinib, and fedratinib concentrations at the end of the experiment were 0.15, 0.6 and 2.4 uM, respectively. Fedratinib-treated cells lost complete viability after about 30 days (after 3 weeks in 2.4 uM).

[6] = UKE1, Table 2, read-out: GI50 (UKE1)
[7] = UKE1, Table 1 comments, read-out: GI50 (UKE1 cells)

| BRD4 DSF (ΔTm) (BRD4 [1]) [°C] | GI50 (MM1.S cells) [nM] | Structure (SMILES) | GI50 (UKE1 cells [2]; [6]) [nM] | also measured |
| --- | --- | --- | --- | --- |
|  |  | Cc1cnc(Nc2ccc(N3CCNCC3)c(F)c2)nc1Nc1ccc(Cl)c(NS(=O)(=O)C(C)(C)C)c1 |  | pIC50 (BRD4-1): 9.00; DSF ΔTm (BRD4 [1]): 13 ± 0.05 °C; pIC50 (JAK2; Table 1 comments, n = 2): 8.56 |
|  |  | Cc1cnc(Nc2ccc(N3CCN(CCCN)CC3)c(F)c2)nc1Nc1ccc(Cl)c(NS(=O)(=O)C(C)(C)C)c1 |  | pIC50 (BRD4-1): 8.34; DSF ΔTm (BRD4 [1]): 11 ± 0.02 °C |
|  |  | Cc1cnc(Nc2ccc(N3CCN(CCCN)CC3)c(F)c2)nc1Nc1cccc(NS(=O)(=O)C(C)(C)C)c1 |  | pIC50 (BRD4-1): 7.80; DSF ΔTm (BRD4 [1]): 9.4 ± 0.09 °C |
|  |  | CC[C@@H]1C(=O)N(C)c2cnc(Nc3ccc(C(=O)NC4CCN(C)CC4)cc3OC)nc2N1C1CCCC1 [BI2536] |  | downregulation of c-Myc in MM.1S cells (c-Myc): strong downregulation |
| 4.1 | 4790 | Cc1cnc(Nc2ccc(N3CCN(C)CC3)c(F)c2)cc1Nc1cccc(S(=O)(=O)NC(C)(C)C)c1 [MA9-024, N-(Tert-butyl)-3-((2-((3-fluoro-4-(4-methylpiperazin-1-yl)phenyl)amino)-5-methylpyridin-4-yl)amino)benzenesulfonamide] | > 24000 |  |
| 12.3 | 110 | Cc1cnc(Nc2ccc(C3CCN(C)CC3)cc2)nc1Nc1ccc(Cl)c(NS(=O)(=O)C(C)(C)C)c1 [MA9-050, N-(2-Chloro-5-((5-methyl-2-((4-(1-methylpiperidin-4-yl)phenyl)amino)pyrimidin-4-yl)amino)phenyl)-2-methylpropane-2-sulfonamide] | 310 | pIC50 (JAK2; Table 2): 8.09; pIC50 (BRD4 [3]): 6.84 |
| 11.3 | 160 | Cc1cnc(Nc2cc(F)cc(N3CCN(C)CC3)c2)nc1Nc1ccc(Cl)c(NS(=O)(=O)C(C)(C)C)c1 [MA9-062, N-(2-Chloro-5-((2-((3-fluoro-5-(4-methylpiperazin-1-yl)phenyl)amino)-5-methylpyrimidin-4-yl)amino)phenyl)-2-methylpropane-2-sulfonamide] |  | pIC50 (JAK2; Table 2): 7.77; pIC50 (BRD4 [3]): 7.31 |
| 13.4 | 194 | Cc1cnc(Nc2ccc(C3CCN(C)CC3)c(F)c2)nc1Nc1ccc2c(c1)N(S(=O)(=O)C(C)(C)C)CC2 [MA9-086, N4-(1-(Tert-butylsulfonyl)indolin-6-yl)-N2-(3-fluoro-4-(1-methylpiperidin-4-yl)phenyl)-5-methylpyrimidine-2,4-diamine] |  | pIC50 (JAK2; Table 2): 8.96; pIC50 (BRD4 [3]): 8.19 |
| 11.0 | 499 | Cc1cnc(Nc2ccc(OCCN3CCCC3)cc2)nc1Nc1ccc2c(c1)N(S(=O)(=O)C(C)(C)C)CC2 [MA11-006, N4-(1-(tert-butylsulfonyl)indolin-6-yl)-5-methyl-N2-(4-(2-(pyrrolidin-1-yl)ethoxy)phenyl)pyrimidine-2,4-diamine] | 502 |  |
| 13.7 | 135 | Cc1cnc(Nc2ccc(OCCN3CCCC3)c(F)c2)nc1Nc1ccc2c(c1)N(S(=O)(=O)C(C)(C)C)CC2 [MA11-007, N4-(1-(tert-butylsulfonyl)indolin-6-yl)-N2-(3-fluoro-4-(2-(pyrrolidin-1-yl)ethoxy)phenyl)-5-methylpyrimidine-2,4-diamine] | 260 |  |
| 13.6 | 43 | Cc1cnc(Nc2cc(F)c(C3CCN(C)CC3)cn2)nc1Nc1ccc(Cl)c(NS(=O)(=O)C(C)(C)C)c1 [PN1-064, N-(2-Chloro-5-((2-((4-fluoro-5-(1-methylpiperidin-4-yl)pyridin-2-yl)amino)-5-methylpyrimidin-4-yl)amino)phenyl)-2-methylpropane-2-sulfonamide] | 54 |  |
| 13.4 | 72 | Cc1cnc(Nc2cc(F)c(C3CCN(C)CC3)cn2)nc1Nc1ccc(F)c(NS(=O)(=O)C(C)(C)C)c1 [PN2-089, N-(2-Fluoro-5-((2-((4-fluoro-5-(1-methylpiperidin-4-yl)pyridin-2-yl)amino)-5-methylpyrimidin-4-yl)amino)phenyl)-2-methylpropane-2-sulfonamide] | 134 |  |
| 12.8 | 186 | Cc1cnc(Nc2cc(F)c(C3CCN(C)CC3)cn2)nc1Nc1ccc2c(c1)N(S(=O)(=O)C(C)(C)C)CC2 [PN2-128, N^4-(1-(tert-Butylsulfonyl)indolin-6-yl)-N^2-(4-fluoro-5-(1-methylpiperidin-4-yl)pyridin-2-yl)-5-methylpyrimidine-2,4-diamine] | 207 |  |
| 13.8 | 152 | Cc1cnc(Nc2cc(F)c(C3CCN(C)CC3)c(F)c2)nc1Nc1ccc2c(c1)N(S(=O)(=O)C(C)(C)C)CC2 [PN2-129, N^4-(1-(tert-butylsulfonyl)indolin-6-yl)-N^2-(3,5-difluoro-4-(1-methylpiperidin-4-yl)phenyl)-5-methylpyrimidine-2,4-diamine] | 222 |  |
| 13.3 |  | Cc1ccc(Nc2nc(Nc3cc(F)c(C4CCN(C)CC4)c(F)c3)ncc2C)cc1NS(=O)(=O)C(C)(C)C [PN2-174, N-(5-((2-((3,5-Difluoro-4-(1-methylpiperidin-4-yl)phenyl)amino)-5-methylpyrimidin-4-yl)amino)-2-methylphenyl)-2-methylpropane-2-sulfonamide] | 194 |  |
| 12.6 |  | Cc1ccc(Nc2nc(Nc3cc(F)c(C4CCN(C)CC4)cn3)ncc2C)cc1NS(=O)(=O)C(C)(C)C [PN2-175, N-(5-((2-((4-Fluoro-5-(1-methylpiperidin-4-yl)pyridin-2-yl)amino)-5-methylpyrimidin-4-yl)amino)-2-methylphenyl)-2-methylpropane-2-sulfonamide] | 220 |  |
| 6.0 | 3310 | Cc1cnc(Nc2ccc(N3CCN(C)CC3)c(F)c2)cc1Nc1cccc(NS(=O)(=O)C(C)(C)C)c1 [SY3-005, N-(3-((2-((3-Fluoro-4-(4-methylpiperazin-1-yl)phenyl)amino)-5-methylpyridin-4-yl)amino)phenyl)-2-methylpropane-2-sulfonamide] | 5300 | pIC50 (JAK2; Table 2): < 6.00; pIC50 (BRD4 [3]): 5.40 |
| 10.6 | 91 | Cc1cnc(Nc2ccc(C3CCN(C)CC3)cc2)nc1Nc1cccc(NS(=O)(=O)C(C)(C)C)c1 [SY3-034, 2-Methyl-N-(3-((5-methyl-2-((4-(1-methylpiperidin-4-yl)phenyl)amino)pyrimidin-4-yl)amino)phenyl)propane-2-sulfonamide] | 220 | pIC50 (JAK2; Table 2): 8.80 |
| 12.3 |  | Cc1cnc(Nc2ccc(C3CCN(C)CC3)c(F)c2)nc1Nc1cccc(NS(=O)(=O)C(C)(C)C)c1 [SY3-038, N-(3-((2-((3-Fluoro-4-(1-methylpiperidin-4-yl)phenyl)amino)-5-methylpyrimidin-4-yl)amino)phenyl)-2-methylpropane-2-sulfonamide] | 64 | pIC50 (JAK2; Table 2): 9.15; pIC50 (BRD4 [3]): 7.06 |
| 11.1 | 220 | Cc1cnc(Nc2cc(F)cc(N3CCN(C)CC3)c2)nc1Nc1cccc(NS(=O)(=O)C(C)(C)C)c1 [SY3-040, N-(3-((2-((3-Fluoro-5-(4-methylpiperazin-1-yl)phenyl)amino)-5-methylpyrimidin-4-yl)amino)phenyl)-2-methylpropane-2-sulfonamide] |  | pIC50 (JAK2; Table 2): 8.51; pIC50 (BRD4 [3]): 6.90 |
|  |  | Cc1cnc(Nc2ccc(N3CCN(C)CC3)cc2)nc1Nc1cccc(S(=O)(=O)NC(C)(C)C)c1 [TG101209] |  | downregulation of c-Myc in MM.1S cells (c-Myc): strong downregulation |
|  |  | Cc1cnc(Nc2ccc(C3CCN(C)CC3)cc2)nc1Nc1ccc(Cl)c(NS(=O)(=O)C(C)(C)C)c1 [drawing 11] |  | DSF ΔTm (BRD4 [1]): 12.3 °C; Mouse microsome [4]: 81%; pIC50 (MM1.S cells): 6.96; GI50 (SET2 cells): 240 nM; GI50 (BaF3-JAK2-VF cells): 99 nM; GI50 (UKE1 cells [2]; Table 1 comments, read-out: GI50 (UKE1 cells)): 340 nM; GI50 (UKE1 cells [2]; [7]): 280 nM |
|  |  | Cc1cnc(Nc2ccc(C3CCN(C)CC3)cc2)nc1Nc1cccc(NS(=O)(=O)C(C)(C)C)c1 [drawing 12] |  | DSF ΔTm (BRD4 [1]): 10.6 °C; pIC50 (MM1.S cells): 7.04; GI50 (UKE1 cells [2]; [7]): 220 nM |
|  |  | Cc1cnc(Nc2ccc(C3CCN(C)CC3)c(F)c2)nc1Nc1cccc(NS(=O)(=O)C(C)(C)C)c1 [drawing 13] |  | DSF ΔTm (BRD4 [1]): 12.3 °C; GI50 (UKE1 cells [2]; [7]): 110 nM |
|  |  | Cc1cnc(Nc2ccc(OCCN3CCCC3)cc2)nc1Nc1cccc(S(=O)(=O)NC(C)(C)C)c1 [fedratinib] |  | development of drug persistence (UKE1 cells [5]): persistently grew in increasing concentrations; time until treated cells lost complete viability (UKE1 cells [5]; UKE1 cells, after 3 weeks in 2.4 uM): about 30 days; final drug concentration at the end of the experiment (UKE1 cells [5]; UKE1 cells): 2.4 µM |
|  |  | N#CC[C@H](C1CCCC1)n1cc(-c2ncnc3[nH]ccc23)cn1 [ruxolitinib] |  | development of drug persistence (UKE1 cells [5]): persistently grew in increasing concentrations; final drug concentration at the end of the experiment (UKE1 cells [5]; UKE1 cells): 0.6 µM |
